Reference: PubChem BioAssay (NCI)
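The compound was tested at five concentrations on cells cultured in 96-well plates, with a 48-hour exposure period. TGI: concentration producing complete growth inhibition.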

Experiments:
Assay in all cases: DTP human tumour cell line panel, 48 h
SW-620 colon = tested on: SW-620 colon
A498 renal = tested on: A498 renal
DMS 114 small cell lung = tested on: DMS 114 small cell lung
ACHN renal = tested on: ACHN renal
SK-MEL-5 melanoma = tested on: SK-MEL-5 melanoma
SK-OV-3 ovarian = tested on: SK-OV-3 ovarian
COLO 205 colon = tested on: COLO 205 colon
M14 melanoma = tested on: M14 melanoma
CAKI-1 renal = tested on: CAKI-1 renal
SNB-19 CNS = tested on: SNB-19 CNS
HOP-92 NSCLC = tested on: HOP-92 NSCLC
LOX IMVI melanoma = tested on: LOX IMVI melanoma
SN12C renal = tested on: SN12C renal
NCI-H226 lung = tested on: NCI-H226 lung
HCT-116 colon = tested on: HCT-116 colon
M19-MEL melanoma = tested on: M19-MEL melanoma
SR leukemia = tested on: SR leukemia
DLD-1 colon = tested on: DLD-1 colon
KM12 colon = tested on: KM12 colon
OVCAR-4 ovarian = tested on: OVCAR-4 ovarian
IGROV1 ovarian = tested on: IGROV1 ovarian
SF-268 CNS = tested on: SF-268 CNS
HOP-62 NSCLC = tested on: HOP-62 NSCLC
CCRF-CEM leukemia = tested on: CCRF-CEM leukemia
A549 NSCLC = tested on: A549 NSCLC
OVCAR-8 ovarian = tested on: OVCAR-8 ovarian
UO-31 renal = tested on: UO-31 renal
K-562 leukemia = tested on: K-562 leukemia
SK-MEL-28 melanoma = tested on: SK-MEL-28 melanoma
SF-295 CNS = tested on: SF-295 CNS
NCI-H23 lung = tested on: NCI-H23 lung
MALME-3M melanoma = tested on: MALME-3M melanoma
SNB-78 CNS = tested on: SNB-78 CNS
SNB-75 CNS = tested on: SNB-75 CNS
SF-539 CNS = tested on: SF-539 CNS
LXFL 529 NSCLC = tested on: LXFL 529 NSCLC
TK-10 renal = tested on: TK-10 renal
HT29 colon = tested on: HT29 colon
UACC-62 melanoma = tested on: UACC-62 melanoma
UACC-257 melanoma = tested on: UACC-257 melanoma
NCI-H460 lung = tested on: NCI-H460 lung
MOLT-4 leukemia = tested on: MOLT-4 leukemia
786-0 renal = tested on: 786-0 renal
EKVX NSCLC = tested on: EKVX NSCLC
NCI-H522 lung = tested on: NCI-H522 lung
KM20L2 colon = tested on: KM20L2 colon
RXF-631 renal = tested on: RXF-631 renal
HL-60(TB) leukemia = tested on: HL-60(TB) leukemia
OVCAR-3 ovarian = tested on: OVCAR-3 ovarian
RXF 393 renal = tested on: RXF 393 renal
U251 CNS = tested on: U251 CNS
XF 498 CNS = tested on: XF 498 CNS
HCC-2998 colon = tested on: HCC-2998 colon
OVCAR-5 ovarian = tested on: OVCAR-5 ovarian
SK-MEL-2 melanoma = tested on: SK-MEL-2 melanoma
HCT-15 colon = tested on: HCT-15 colon

For `CC1CC[C@@]23CCC4(C)[C@@](C=CC5[C@@]6(C)CCC(=O)C(C)(C)C6CC[C@]54C)(OC2=O)[C@@H]3[C@H]1C` (stereo not given in full), the TGI (SW-620 colon) was greater than 100 µM, the TGI (A498 renal) was 62.5 µM and the TGI (DMS 114 small cell lung) was 34.1 µM. For the same molecule, the TGI (ACHN renal) was 78.2 µM, the TGI (SK-MEL-5 melanoma) was 28.5 µM and the TGI (SK-OV-3 ovarian) was 80 µM. The TGI (COLO 205 colon) was 27.7 µM, the TGI (M14 melanoma) was greater than 100 µM and the TGI (CAKI-1 renal) was greater than 100 µM. It also gave a TGI (SNB-19 CNS) greater than 100 µM, a TGI (HOP-92 NSCLC) of 41.7 µM and a TGI (LOX IMVI melanoma) of 36.3 µM. It also gave a TGI (SN12C renal) greater than 100 µM, a TGI (NCI-H226 lung) of 58.9 µM and a TGI (HCT-116 colon) of 22.7 µM. It also gave a TGI (M19-MEL melanoma) of 68.5 µM, a TGI (SR leukemia) of 26.5 µM and a TGI (DLD-1 colon) greater than 100 µM. It also gave a TGI (KM12 colon) of 36.8 µM, a TGI (OVCAR-4 ovarian) greater than 100 µM and a TGI (IGROV1 ovarian) greater than 100 µM. The TGI (SF-268 CNS) was greater than 100 µM, the TGI (HOP-62 NSCLC) was 42.6 µM and the TGI (CCRF-CEM leukemia) was 53.4 µM. The TGI (A549 NSCLC) was 81 µM, the TGI (OVCAR-8 ovarian) was greater than 100 µM and the TGI (UO-31 renal) was 40.2 µM. For the same molecule, the TGI (K-562 leukemia) was greater than 100 µM, the TGI (SK-MEL-28 melanoma) was greater than 100 µM and the TGI (SF-295 CNS) was 73.2 µM. For the same molecule, the TGI (NCI-H23 lung) was 42 µM, the TGI (MALME-3M melanoma) was 52 µM and the TGI (SNB-78 CNS) was 67.9 µM. It also gave a TGI (SNB-75 CNS) of 55 µM, a TGI (SF-539 CNS) of 86.3 µM and a TGI (LXFL 529 NSCLC) of 74.7 µM. The TGI (TK-10 renal) was 56.5 µM, the TGI (HT29 colon) was 51.3 µM and the TGI (UACC-62 melanoma) was greater than 100 µM. For the same molecule, the TGI (UACC-257 melanoma) was 52.8 µM, the TGI (NCI-H460 lung) was 58 µM and the TGI (MOLT-4 leukemia) was 27.8 µM. For the same molecule, the TGI (786-0 renal) was greater than 100 µM, the TGI (EKVX NSCLC) was 82.9 µM and the TGI (NCI-H522 lung) was 37.9 µM. For the same molecule, the TGI (KM20L2 colon) was greater than 100 µM, the TGI (RXF-631 renal) was 71.4 µM and the TGI (HL-60(TB) leukemia) was 13.3 µM. For the same molecule, the TGI (OVCAR-3 ovarian) was 39.3 µM, the TGI (RXF 393 renal) was 41.2 µM and the TGI (U251 CNS) was 52.9 µM. It also gave a TGI (XF 498 CNS) of 34.2 µM.
`COc1cc(/C=C(\NC(=O)c2ccccc2)c2nc3[nH]c(=S)[nH]c(=O)c3[nH]2)cc(OC)c1OC` was tested, and the TGI (SW-620 colon) was greater than 100 µM, the TGI (HCC-2998 colon) was greater than 100 µM and the TGI (DMS 114 small cell lung) was greater than 100 µM. For the same molecule, the TGI (ACHN renal) was greater than 100 µM, the TGI (SK-MEL-5 melanoma) was greater than 100 µM and the TGI (SK-OV-3 ovarian) was greater than 100 µM. For the same molecule, the TGI (COLO 205 colon) was greater than 100 µM, the TGI (M14 melanoma) was greater than 100 µM and the TGI (CAKI-1 renal) was greater than 100 µM. For the same molecule, the TGI (SNB-19 CNS) was greater than 100 µM, the TGI (HOP-92 NSCLC) was greater than 100 µM and the TGI (OVCAR-5 ovarian) was greater than 100 µM. It also gave a TGI (SN12C renal) greater than 100 µM, a TGI (M19-MEL melanoma) greater than 100 µM and a TGI (SR leukemia) greater than 100 µM. The TGI (SK-MEL-2 melanoma) was greater than 100 µM, the TGI (DLD-1 colon) was greater than 100 µM and the TGI (KM12 colon) was greater than 100 µM. For the same molecule, the TGI (OVCAR-4 ovarian) was greater than 100 µM, the TGI (IGROV1 ovarian) was greater than 100 µM and the TGI (SF-268 CNS) was greater than 100 µM. The TGI (CCRF-CEM leukemia) was greater than 100 µM, the TGI (A549 NSCLC) was greater than 100 µM and the TGI (OVCAR-8 ovarian) was greater than 100 µM. The TGI (UO-31 renal) was greater than 100 µM, the TGI (K-562 leukemia) was greater than 100 µM and the TGI (SK-MEL-28 melanoma) was greater than 100 µM. The TGI (SF-295 CNS) was greater than 100 µM, the TGI (NCI-H23 lung) was greater than 100 µM and the TGI (MALME-3M melanoma) was greater than 100 µM. It also gave a TGI (SNB-78 CNS) greater than 100 µM, a TGI (SF-539 CNS) greater than 100 µM and a TGI (LXFL 529 NSCLC) greater than 100 µM. For the same molecule, the TGI (TK-10 renal) was greater than 100 µM, the TGI (HT29 colon) was greater than 100 µM and the TGI (UACC-62 melanoma) was greater than 100 µM. For the same molecule, the TGI (MOLT-4 leukemia) was greater than 100 µM, the TGI (786-0 renal) was greater than 100 µM and the TGI (EKVX NSCLC) was greater than 100 µM. For the same molecule, the TGI (NCI-H522 lung) was greater than 100 µM, the TGI (KM20L2 colon) was greater than 100 µM and the TGI (RXF-631 renal) was greater than 100 µM. For the same molecule, the TGI (HL-60(TB) leukemia) was greater than 100 µM, the TGI (OVCAR-3 ovarian) was greater than 100 µM and the TGI (RXF 393 renal) was greater than 100 µM. It also gave a TGI (U251 CNS) greater than 100 µM, a TGI (XF 498 CNS) greater than 100 µM and a TGI (HCT-15 colon) greater than 100 µM.
